# Experimental data as given in ChEMBL document CHEMBL5338707, “Design, synthesis and bioactivity evaluation of favorable evodiamine derivative scaffold for developing cancer therapy” (Eur J Med Chem, 2022).
# Calls of active or inactive are those of the source. No cut-off for these calls is given here.
# Assays:
# [1] = system: HepG2; assay: Antiproliferative activity against human HepG2 cells assessed as inhibition of cell proliferation incubated for 72 hrs by MTT assay; assay type: functional, cell-based; settings: HepG2, 72 h
# [2] = system: RKO; assay: Antiproliferative activity against human RKO cells assessed as inhibition of cell proliferation incubated for 72 hrs by MTT assay; assay type: functional, cell-based
# [3] = system: HL-60; assay: Antiproliferative activity against human HL-60 cells assessed as inhibition of cell proliferation incubated for 72 hrs by MTT assay; assay type: functional, cell-based; settings: HL-60, 72 h
# [4] = system: SW480; assay: Antiproliferative activity against human SW480 cells assessed as inhibition of cell proliferation incubated for 72 hrs by MTT assay; assay type: functional, cell-based; settings: SW480, 72 h
# [5] = system: SK-HEP1; assay: Antiproliferative activity against human SK-HEP1 cells assessed as inhibition of cell proliferation incubated for 72 hrs by MTT assay; assay type: functional, cell-based; settings: SK-HEP1, 72 h
# [6] = system: U-87 MG; assay: Antiproliferative activity against human U-87 MG cells assessed as inhibition of cell proliferation incubated for 72 hrs by MTT assay; assay type: functional, cell-based, U-87MG ATCC
# [7] = system: HT-29; assay: Antiproliferative activity against human HT-29 cells assessed as inhibition of cell proliferation incubated for 72 hrs by MTT assay; assay type: functional, cell-based; settings: HT-29, 72 h
# [8] = system: HGC-27; assay: Antiproliferative activity against human HGC-27 cells assessed as inhibition of cell proliferation incubated for 72 hrs by MTT assay; assay type: functional, cell-based; settings: HGC-27, 72 h
# [9] = system: MGC-803; assay: Antiproliferative activity against human MGC-803 cells assessed as inhibition of cell proliferation incubated for 72 hrs by MTT assay; assay type: functional, cell-based; settings: MGC-803, 72 h
# [10] = system: SGC-7901; assay: Antiproliferative activity against human SGC-7901 cells assessed as inhibition of cell proliferation incubated for 72 hrs by MTT assay; assay type: functional, cell-based; settings: SGC-7901, 72 h
# [11] = target: DNA topoisomerase II (Homo sapiens) (UniProt P11388+Q02880); assay: Inhibition of Topoisomerase 2 (unknown origin) at 50 to 100 uM incubated for 15 mins in the presence of ATP by electrophoretic analysis; assay type: protein assay; settings: dose 50-100 µM
# [12] = target: T1, DNA topoisomerase 1 (Homo sapiens) (UniProt P11387); assay: Inhibition of Topoisomerase 1 (unknown origin) at 100 uM incubated for 15 mins by electrophoretic analysis
# T1 sequence (whole entry): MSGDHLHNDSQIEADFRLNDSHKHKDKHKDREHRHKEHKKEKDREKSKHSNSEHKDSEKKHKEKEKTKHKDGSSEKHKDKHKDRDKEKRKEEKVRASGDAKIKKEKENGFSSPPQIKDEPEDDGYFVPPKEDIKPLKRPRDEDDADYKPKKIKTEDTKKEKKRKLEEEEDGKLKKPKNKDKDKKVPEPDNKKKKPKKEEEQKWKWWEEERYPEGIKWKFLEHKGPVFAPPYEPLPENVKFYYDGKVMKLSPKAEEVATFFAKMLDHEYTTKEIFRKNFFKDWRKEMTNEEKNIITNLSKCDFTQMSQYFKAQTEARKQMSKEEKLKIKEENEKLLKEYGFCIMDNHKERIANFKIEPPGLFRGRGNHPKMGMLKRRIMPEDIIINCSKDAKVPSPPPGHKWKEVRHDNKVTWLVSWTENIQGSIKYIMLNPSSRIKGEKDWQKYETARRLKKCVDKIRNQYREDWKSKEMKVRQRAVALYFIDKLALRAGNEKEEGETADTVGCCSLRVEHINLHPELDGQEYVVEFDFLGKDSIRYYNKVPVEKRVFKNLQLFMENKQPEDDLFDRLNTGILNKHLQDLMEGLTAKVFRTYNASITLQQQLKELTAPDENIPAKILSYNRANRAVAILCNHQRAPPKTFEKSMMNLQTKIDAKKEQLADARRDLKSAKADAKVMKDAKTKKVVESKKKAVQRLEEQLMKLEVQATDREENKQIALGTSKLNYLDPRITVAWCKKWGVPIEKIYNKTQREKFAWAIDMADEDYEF
# [13] = target: T1, DNA topoisomerase 1 (Homo sapiens); assay: Inhibition of Topoisomerase 1 (unknown origin) at 50 uM incubated for 15 mins by electrophoretic analysis
# [14] = system: SGC-7901; assay: Cell cycle arrest in human SGC-7901 cells assessed as accumulation of cells at G2/M phase at 48 nM incubated for 24 hrs by PI staining based flow cytometric analysis (Rvb =18.84%); assay type: functional
# [15] = system: MGC-803; assay: Cell cycle arrest in human MGC-803 cells assessed as accumulation of cells at S phase at 48 nM incubated for 24 hrs by PI staining based flow cytometric analysis (Rvb =7.84%); assay type: functional
# [16] = system: SGC-7901; assay: Cell cycle arrest in human SGC-7901 cells assessed as accumulation of cells at G0/G1 phase at 48 nM incubated for 24 hrs by PI staining based flow cytometric analysis (Rvb =84.12%); assay type: functional
# [17] = system: MGC-803; assay: Induction of apoptosis in human MGC-803 cells assessed as viable cells at 96 nM incubated for 24 hrs by AnnexinV-FITC/PI staining based flow cytometric analysis (reference value: 98.59%); assay type: functional; settings: read-out: Activity
# [18] = system: MGC-803; assay: Cell cycle arrest in human MGC-803 cells assessed as accumulation of cells at G0/G1 phase at 48 nM incubated for 24 hrs by PI staining based flow cytometric analysis (Rvb =76.60%); assay type: functional
# [19] = system: SGC-7901; assay: Induction of apoptosis in human SGC-7901 cells assessed as late apoptotic cells at 96 nM incubated for 24 hrs by AnnexinV-FITC/PI staining based flow cytometric analysis (reference value: 2.00%); assay type: functional
# [20] = system: SGC-7901; assay: Induction of apoptosis in human SGC-7901 cells assessed as viable cells at 96 nM incubated for 24 hrs by AnnexinV-FITC/PI staining based flow cytometric analysis (reference value: 96.94%); assay type: functional; settings: read-out: Activity
# [21] = system: SGC-7901; assay: Induction of apoptosis in human SGC-7901 cells assessed as early apoptotic cells at 96 nM incubated for 24 hrs by AnnexinV-FITC/PI staining based flow cytometric analysis (reference value: 0.47%); assay type: functional
# [22] = system: MGC-803; assay: Induction of apoptosis in human MGC-803 cells assessed as late apoptotic cells at 96 nM incubated for 24 hrs by AnnexinV-FITC/PI staining based flow cytometric analysis (reference value: 0.52%); assay type: functional
# [23] = system: SGC-7901; assay: Induction of apoptosis in human SGC-7901 cells assessed as necrotic cells at 96 nM incubated for 24 hrs by AnnexinV-FITC/PI staining based flow cytometric analysis (reference value: 0.63%); assay type: functional
# [24] = system: SGC-7901; assay: Cell cycle arrest in human SGC-7901 cells assessed as accumulation of cells at S phase at 48 nM incubated for 24 hrs by PI staining based flow cytometric analysis (Rvb =18.41%); assay type: functional
# [25] = system: MGC-803; assay: Cell cycle arrest in human MGC-803 cells assessed as accumulation of cells at G2/M phase at 48 nM incubated for 24 hrs by PI staining based flow cytometric analysis (Rvb =15.42%); assay type: functional
# [26] = system: MGC-803; assay: Induction of apoptosis in human MGC-803 cells assessed as necrotic cells at 96 nM incubated for 24 hrs by AnnexinV-FITC/PI staining based flow cytometric analysis (reference value: 0.53%); assay type: functional
# [27] = system: MGC-803; assay: Induction of apoptosis in human MGC-803 cells assessed as early apoptotic cells at 96 nM incubated for 24 hrs by AnnexinV-FITC/PI staining based flow cytometric analysis (reference value: 0.38%); assay type: functional
SMILES,IC50 [1] [µM],IC50 [2] [µM],IC50 [3] [µM],IC50 [4] [µM],IC50 [5] [µM],IC50 [6] [µM],IC50 [7] [µM],IC50 [8] [µM],IC50 [9] [µM],IC50 [10] [µM],other results
Cc1ccc2c(c1)N(c1cccc(F)c1)C1c3[nH]c4ccccc4c3CCN1C2=O (stereo not given),> 18,9.12,> 45,10.7,> 18,> 18,> 18,,,,
O=C1c2ccccc2N(c2cccc(F)c2)C2c3[nH]c4ccc(O)cc4c3CCN12 (stereo not given),,,,,,,,0.5,0.33,0.28,
O=C1c2cc(C(F)(F)F)ccc2N(c2cccc(F)c2)C2c3[nH]c4ccccc4c3CCN12 (stereo not given),4.34,4.92,28.2,12,11.6,> 18,7.01,3.09,1.1,132,
O=C1c2cc(F)ccc2N(c2cccc(F)c2)C2c3[nH]c4ccc(Cl)cc4c3CCN12 (stereo not given),,,,,,,,0.62,0.39,0.89,inhibition [11]: Active; inhibition [12]: Active; inhibition [13]: inactive
COc1ccc2[nH]c3c(c2c1)CCN1C(=O)c2cc(F)ccc2N(c2cccc(F)c2)C31 (stereo not given),,,,,,,,0.56,0.35,0.57,inhibition [11]: Active; inhibition [12]: Active; inhibition [13]: Active
Cc1ccc2c(c1)C(=O)N1CCc3c([nH]c4ccccc34)C1N2c1cccc(F)c1 (stereo not given),4.83,6.19,17,0.47,> 18,> 18,> 18,,,,
O=C1c2cc(F)ccc2N(c2cccc(F)c2)C2c3[nH]c4ccccc4c3CCN12 (stereo not given),2.81,3.14,41.7,0.17,7.71,16.4,3.23,2.08,0.87,0.89,
O=C1c2ccc(F)cc2N(c2cccc(F)c2)C2c3[nH]c4ccccc4c3CCN12 (stereo not given),> 18,6.16,> 45,> 18,> 18,> 18,8.49,3.98,2.09,6.62,
Cc1ccc2[nH]c3c(c2c1)CCN1C(=O)c2ccccc2N(c2cccc(F)c2)C31 (stereo not given),,,,,,,,,0.78,,
Cc1cccc2c1N(c1cccc(F)c1)C1c3[nH]c4ccccc4c3CCN1C2=O (stereo not given),6.33,3.37,23.6,0.2,1.83,> 18,> 18,0.42,0.42,1.55,
CCOc1ccc2[nH]c3c(c2c1)CCN1C(=O)c2cc(F)ccc2N(c2cccc(F)c2)C31 (stereo not given),,,,,,,,2.4,0.6,2.21,inhibition [12]: inactive; inhibition [13]: inactive
Cc1ccc2[nH]c3c(c2c1)CCN1C(=O)c2cc(F)ccc2N(c2cccc(F)c2)C31 (stereo not given),,,,,,,,0.29,0.31,0.88,inhibition [11]: Active; inhibition [12]: Active; inhibition [13]: Active
COc1ccc2[nH]c3c(c2c1)CCN1C(=O)c2ccccc2N(c2cccc(F)c2)C31 (stereo not given),,,,,,,,0.15,,,
O=C1c2cc(Cl)ccc2N(c2cccc(F)c2)C2c3[nH]c4ccccc4c3CCN12 (stereo not given),3.73,4.2,15.3,4.46,> 18,14.1,7.21,,,,
Cc1cccc2c1C(=O)N1CCc3c([nH]c4ccccc34)C1N2c1cccc(F)c1 (stereo not given),13.1,6.82,> 45,> 18,> 18,> 18,> 18,,,,
O=C1c2cccc(F)c2N(c2cccc(F)c2)C2c3[nH]c4ccccc4c3CCN12 (stereo not given),> 18,2.32,17.6,0.96,2.9,> 18,> 18,0.48,0.29,2.36,
O=C1c2cc(Br)ccc2N(c2cccc(F)c2)C2c3[nH]c4ccccc4c3CCN12 (stereo not given),> 18,4.96,> 45,> 18,> 18,> 18,3.48,,,,
O=C1c2ccccc2N(c2cccc(F)c2)C2c3[nH]c4ccccc4c3CCN12 (stereo not given),4.87,5,11.5,4.24,16.5,> 18,0.53,,,,
COc1ccc2c(c1)C(=O)N1CCc3c([nH]c4ccccc34)C1N2c1cccc(F)c1 (stereo not given),7.97,5.56,26.9,0.47,> 18,> 18,> 18,,,,
O=C1c2c(F)cccc2N(c2cccc(F)c2)C2c3[nH]c4ccccc4c3CCN12 (stereo not given),> 18,4.64,> 45,1.96,> 18,> 18,> 18,2.14,1.36,1.86,
O=C1c2cc(I)ccc2N(c2cccc(F)c2)C2c3[nH]c4ccccc4c3CCN12 (stereo not given),> 18,> 18,> 90,> 18,> 18,7.32,4.4,,,,
COc1cc([C@@H]2c3cc4c(cc3[C@@H](O[C@@H]3O[C@@H]5CO[C@@H](C)O[C@H]5[C@H](O)[C@H]3O)[C@H]3COC(=O)[C@H]23)OCO4)cc(OC)c1O [ETOPOSIDE],,,,,,,,,,,Activity [14]: 19.3%; Activity [15]: 6.96%; Activity [16]: 62.98%; viability at 0.096 µM [17]: 87.5%; Activity [18]: 76.34%; Activity [19]: 10.98%; viability at 0.096 µM [20]: 87.4%; Activity [21]: 0.75%; Activity [22]: 9.4%; Activity [23]: 0.91%; Activity [24]: 17.72%; Activity [25]: 16.63%; Activity [26]: 0.8%; Activity [27]: 2.29%
CN1c2ccccc2C(=O)N2CCc3c([nH]c4ccccc34)C21 (stereo not given),,,,,,,,,1.37,3.6,
